pIC50: −log10 of the molar value. Activity calls are given as the source filed them.
What was measured:
Estrogen receptor beta [1] = target: T1, Estrogen receptor beta (Homo sapiens, UniProt Q92731);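 note: recombinant ER-beta bound to coactivator SRC1 peptide in presence of estradiol agonist; inhibitors block coactivator peptide binding and lower the FRET signal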
Bcl-2-like protein 10 = target: T2, Bcl-2-like protein 10 (Homo sapiens, UniProt Q9HD36); experiment: displacers of TR3 peptide from Bcl-B, primary screen, selectivity assay for Bfl-1 inhibitor project, biochemical, fluorescence polarization, FITC-TR3 peptide (AID 748);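 note: fluorescence polarization from a fluorescein-labelled TR3 peptide binding purified Bcl-B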
T2 sequence (Q9HD36 whole entry): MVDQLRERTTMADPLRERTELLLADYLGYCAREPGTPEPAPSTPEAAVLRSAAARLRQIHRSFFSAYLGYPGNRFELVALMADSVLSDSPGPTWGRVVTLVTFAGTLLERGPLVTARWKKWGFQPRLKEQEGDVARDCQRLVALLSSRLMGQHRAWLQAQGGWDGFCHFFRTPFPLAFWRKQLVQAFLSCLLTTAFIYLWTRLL

Estrogen receptor beta [2] = target: T1, Estrogen receptor beta; experiment: ERβ–SRC-3 coactivator interaction inhibitors, confirmation, orthogonal assay, biochemical, ELISA, streptavidin-HRP readout (AID 1060)
[3] = inhibitors of intracellular T. cruzi replication, confirmation, NIH3T3 host cells, beta-gal luminescence (AID 2044); type: functional, cell-based;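 note: intracellular parasites grown in NIH/3T3 mouse fibroblasts as host cells; luminescent beta-galactosidase reporter signal from transgenic T. cruzi replicating inside host cells; inhibitors lower the luminescence signal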
[4] = target: DNA dC->dU-editing enzyme APOBEC-3G (Homo sapiens, UniProt Q9HC16); experiment: Dose Response confirmation of small molecule APOBEC3G DNA Deaminase Inhibitors via a fluorescence-based single-stranded DNA deaminase assay. [Related pubchem assays (depositor defined):AID493012, AID493028]; type: functional
[5] = target: T3, Kappa-type opioid receptor (Homo sapiens, UniProt P41145); type: functional
[6] = cytotoxicity toward NIH3T3 fibroblasts, dose response, counter-screen, cell-based, ATP luminescence, mouse fibroblasts (AID 2010); type: functional;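 note: cells exposed to compound for about 90 hours before reading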
[7] = target: T4, Short transient receptor potential channel 4 (Mus musculus, UniProt Q9QUQ5); experiment: mouse TRPC4 channel inhibitors, dose response, cell-based, HEK293 TRPC4/mu-opioid, Fluo-4 calcium (AID 434942); type: functional;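 note: potency of inhibitors blocking the TRPC4 calcium response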
T4 sequence (Q9QUQ5 whole entry): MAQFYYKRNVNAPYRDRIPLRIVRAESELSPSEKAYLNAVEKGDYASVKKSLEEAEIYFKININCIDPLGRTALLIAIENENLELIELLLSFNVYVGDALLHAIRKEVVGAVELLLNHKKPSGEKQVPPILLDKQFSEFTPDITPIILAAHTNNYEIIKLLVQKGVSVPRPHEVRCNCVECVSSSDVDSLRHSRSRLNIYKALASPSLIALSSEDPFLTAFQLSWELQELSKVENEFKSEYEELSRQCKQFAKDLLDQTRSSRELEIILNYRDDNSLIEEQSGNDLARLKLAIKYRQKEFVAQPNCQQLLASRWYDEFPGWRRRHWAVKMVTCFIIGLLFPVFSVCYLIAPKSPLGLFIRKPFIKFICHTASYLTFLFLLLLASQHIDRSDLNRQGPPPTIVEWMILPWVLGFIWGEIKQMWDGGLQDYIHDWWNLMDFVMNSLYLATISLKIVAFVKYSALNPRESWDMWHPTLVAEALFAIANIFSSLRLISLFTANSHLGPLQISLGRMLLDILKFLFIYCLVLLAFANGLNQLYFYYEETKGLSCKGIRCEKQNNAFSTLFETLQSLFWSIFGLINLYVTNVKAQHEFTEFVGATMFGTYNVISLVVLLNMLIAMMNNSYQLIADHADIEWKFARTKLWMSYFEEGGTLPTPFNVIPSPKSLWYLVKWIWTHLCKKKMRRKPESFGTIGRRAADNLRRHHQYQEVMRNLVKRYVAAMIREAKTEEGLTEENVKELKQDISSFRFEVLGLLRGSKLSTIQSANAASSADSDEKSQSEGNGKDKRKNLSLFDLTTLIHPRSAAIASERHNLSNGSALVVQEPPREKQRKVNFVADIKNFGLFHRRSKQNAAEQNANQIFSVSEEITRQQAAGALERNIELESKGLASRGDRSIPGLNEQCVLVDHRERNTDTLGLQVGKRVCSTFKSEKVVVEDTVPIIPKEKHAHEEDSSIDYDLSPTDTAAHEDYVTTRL

[8] = target: T3, Kappa-type opioid receptor; type: functional; remark: listed apart in the source
Beta-galactosidase = Beta-galactosidase (Escherichia coli, UniProt Q8VNN2); type: functional
[9] = target: Induced myeloid leukemia cell differentiation protein Mcl-1 (Homo sapiens, UniProt Q07820); type: functional
[10] = target: T5, Replicative DNA helicase DnaB (Mycobacterium tuberculosis, UniProt P9WMR3); experiment: DnaB intein splicing inhibitors, dose response, biochemical, cell-free fluorescence (AID 449749); type: functional
T5 sequence (P9WMR3 whole entry): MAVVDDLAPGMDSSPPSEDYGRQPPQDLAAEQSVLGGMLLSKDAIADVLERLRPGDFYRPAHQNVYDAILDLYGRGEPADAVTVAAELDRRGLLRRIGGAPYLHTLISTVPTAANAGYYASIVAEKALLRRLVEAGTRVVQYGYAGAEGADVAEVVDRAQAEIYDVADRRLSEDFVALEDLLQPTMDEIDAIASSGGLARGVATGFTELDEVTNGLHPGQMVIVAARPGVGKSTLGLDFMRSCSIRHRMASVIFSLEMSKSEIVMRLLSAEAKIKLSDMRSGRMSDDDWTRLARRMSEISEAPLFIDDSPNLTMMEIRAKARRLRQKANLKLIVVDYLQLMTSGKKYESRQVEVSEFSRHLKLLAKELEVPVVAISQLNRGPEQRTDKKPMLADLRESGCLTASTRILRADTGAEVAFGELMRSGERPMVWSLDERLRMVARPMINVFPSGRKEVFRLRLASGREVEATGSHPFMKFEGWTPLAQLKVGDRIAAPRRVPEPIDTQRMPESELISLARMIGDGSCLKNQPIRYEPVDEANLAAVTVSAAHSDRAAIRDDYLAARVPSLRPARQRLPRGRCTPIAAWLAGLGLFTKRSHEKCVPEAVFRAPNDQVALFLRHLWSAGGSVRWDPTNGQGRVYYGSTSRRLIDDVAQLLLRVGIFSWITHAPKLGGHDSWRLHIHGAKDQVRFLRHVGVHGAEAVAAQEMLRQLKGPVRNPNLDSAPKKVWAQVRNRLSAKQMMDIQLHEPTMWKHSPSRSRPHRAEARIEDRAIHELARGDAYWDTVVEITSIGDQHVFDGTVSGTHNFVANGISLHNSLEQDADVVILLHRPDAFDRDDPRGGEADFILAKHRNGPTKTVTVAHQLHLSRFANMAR

[11] = NIH-3T3 fibroblast cytotoxicity, dose response, cytotoxicity control, cell-based, fluorescence, Alamar Blue, secondary assay (AID 2327); type: functional;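 note: NIH-3T3 mouse fibroblasts cultured with fluconazole at 8 µg/mL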
[12] = C. albicans growth with fluconazole, confirmation, fluorescence, retest (AID 2467); type: functional, cell-based
Large T antigen = Large T antigen (Simian virus 40, UniProt P03070); type: functional, Betapolyomavirus macacae;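 note: Confirmatory-stage PubChem screen for compounds that inhibit SV40 T antigen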
Protein RecA = target: T6, Protein RecA (Mycobacterium tuberculosis, UniProt P9WHJ3); experiment: Fluorescence Cell-Free Homogeneous Dose Retest to Identify Inhibitors of RecA-Intein Splicing Activity. [Related pubchem assays (depositor defined):AID2097, AID2223, AID489010, AID492950]; type: functional
T6 sequence (P9WHJ3 whole entry): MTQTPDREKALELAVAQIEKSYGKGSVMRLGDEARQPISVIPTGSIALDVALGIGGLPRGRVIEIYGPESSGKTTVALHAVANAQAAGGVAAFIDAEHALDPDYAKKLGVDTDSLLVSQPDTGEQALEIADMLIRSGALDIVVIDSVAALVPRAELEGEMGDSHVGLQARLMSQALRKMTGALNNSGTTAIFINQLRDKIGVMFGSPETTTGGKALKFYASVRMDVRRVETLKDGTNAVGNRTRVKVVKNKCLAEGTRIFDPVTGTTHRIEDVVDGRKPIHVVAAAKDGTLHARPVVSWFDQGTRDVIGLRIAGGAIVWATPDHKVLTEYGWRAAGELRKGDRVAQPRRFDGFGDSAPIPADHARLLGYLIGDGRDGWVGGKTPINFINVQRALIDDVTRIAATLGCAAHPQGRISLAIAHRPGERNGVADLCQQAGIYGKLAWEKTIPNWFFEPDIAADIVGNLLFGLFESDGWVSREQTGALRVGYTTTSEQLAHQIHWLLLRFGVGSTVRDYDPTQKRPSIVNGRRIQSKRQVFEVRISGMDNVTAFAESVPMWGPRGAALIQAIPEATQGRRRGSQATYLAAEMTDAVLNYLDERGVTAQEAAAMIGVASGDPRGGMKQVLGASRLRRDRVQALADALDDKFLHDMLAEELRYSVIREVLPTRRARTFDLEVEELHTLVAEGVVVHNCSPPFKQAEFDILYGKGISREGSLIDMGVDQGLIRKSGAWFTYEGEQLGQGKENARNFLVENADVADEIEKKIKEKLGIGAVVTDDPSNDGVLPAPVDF

Aminopeptidase N = target: T7, Aminopeptidase N (Plasmodium falciparum FcB1/Columbia, UniProt O96935); experiment: P. falciparum M1AAP inhibitors, biochemical, fluorogenic H-Leu-NHMec substrate, 1536-well (AID 1445); design: species or system Plasmodium falciparum 3D7, 3D7
T7 sequence (O96935 whole entry): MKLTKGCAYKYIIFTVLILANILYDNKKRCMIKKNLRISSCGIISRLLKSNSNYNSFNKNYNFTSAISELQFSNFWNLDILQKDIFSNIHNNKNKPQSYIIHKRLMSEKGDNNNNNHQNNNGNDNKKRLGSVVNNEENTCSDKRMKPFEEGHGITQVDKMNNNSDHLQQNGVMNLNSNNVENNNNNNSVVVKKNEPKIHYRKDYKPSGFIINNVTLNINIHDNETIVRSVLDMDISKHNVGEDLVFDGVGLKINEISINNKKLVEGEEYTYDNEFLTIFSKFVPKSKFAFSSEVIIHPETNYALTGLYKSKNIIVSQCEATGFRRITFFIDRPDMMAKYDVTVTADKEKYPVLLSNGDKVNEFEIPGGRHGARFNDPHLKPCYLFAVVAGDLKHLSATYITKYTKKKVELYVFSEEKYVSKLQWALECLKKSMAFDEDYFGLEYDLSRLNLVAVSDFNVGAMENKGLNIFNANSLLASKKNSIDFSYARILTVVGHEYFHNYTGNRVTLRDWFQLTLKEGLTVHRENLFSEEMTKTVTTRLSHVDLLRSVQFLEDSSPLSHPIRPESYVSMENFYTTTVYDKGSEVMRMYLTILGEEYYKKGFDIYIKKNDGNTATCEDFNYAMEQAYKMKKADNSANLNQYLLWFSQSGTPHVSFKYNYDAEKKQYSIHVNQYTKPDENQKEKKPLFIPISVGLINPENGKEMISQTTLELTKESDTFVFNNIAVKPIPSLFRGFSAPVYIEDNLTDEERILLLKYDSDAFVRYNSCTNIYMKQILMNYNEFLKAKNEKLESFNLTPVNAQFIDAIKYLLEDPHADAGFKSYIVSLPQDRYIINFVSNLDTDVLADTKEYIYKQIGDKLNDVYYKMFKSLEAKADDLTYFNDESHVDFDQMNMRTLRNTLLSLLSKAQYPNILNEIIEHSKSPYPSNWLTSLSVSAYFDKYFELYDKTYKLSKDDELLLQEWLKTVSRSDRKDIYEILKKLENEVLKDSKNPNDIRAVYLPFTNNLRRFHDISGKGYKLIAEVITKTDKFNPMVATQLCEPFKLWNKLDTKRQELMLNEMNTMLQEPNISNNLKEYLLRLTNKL

[13] = target: Voltage-dependent T-type calcium channel subunit alpha-1H (Homo sapiens, UniProt O95180); type: functional;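 note: channel activity triggered by adding a high calcium stimulation buffer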
Trypsin = Trypsin (Sus scrofa, UniProt P00761); experiment: porcine trypsin inhibitors, dose response, selectivity assay for Rce1 protease inhibitor project, biochemical, quenched peptide fluorescence, cherry-pick (AID 488789)
Kallikrein-7 = Kallikrein-7 (Homo sapiens, UniProt P49862); experiment: Fluorescence Intensity-based biochemical primary high throughput dose response assay to identify activators of kallikrein-7 (K7) zymogen.
Sequence of Kallikrein-7 (P49862 whole entry): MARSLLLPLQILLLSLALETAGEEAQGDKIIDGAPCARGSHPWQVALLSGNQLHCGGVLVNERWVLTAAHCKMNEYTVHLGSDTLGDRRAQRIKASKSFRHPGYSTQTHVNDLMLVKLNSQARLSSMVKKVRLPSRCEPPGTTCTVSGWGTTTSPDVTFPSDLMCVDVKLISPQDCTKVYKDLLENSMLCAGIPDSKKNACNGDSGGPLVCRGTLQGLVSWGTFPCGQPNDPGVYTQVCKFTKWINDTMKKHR

Sequence of Voltage-dependent T-type calcium channel subunit alpha-1H (O95180 whole entry): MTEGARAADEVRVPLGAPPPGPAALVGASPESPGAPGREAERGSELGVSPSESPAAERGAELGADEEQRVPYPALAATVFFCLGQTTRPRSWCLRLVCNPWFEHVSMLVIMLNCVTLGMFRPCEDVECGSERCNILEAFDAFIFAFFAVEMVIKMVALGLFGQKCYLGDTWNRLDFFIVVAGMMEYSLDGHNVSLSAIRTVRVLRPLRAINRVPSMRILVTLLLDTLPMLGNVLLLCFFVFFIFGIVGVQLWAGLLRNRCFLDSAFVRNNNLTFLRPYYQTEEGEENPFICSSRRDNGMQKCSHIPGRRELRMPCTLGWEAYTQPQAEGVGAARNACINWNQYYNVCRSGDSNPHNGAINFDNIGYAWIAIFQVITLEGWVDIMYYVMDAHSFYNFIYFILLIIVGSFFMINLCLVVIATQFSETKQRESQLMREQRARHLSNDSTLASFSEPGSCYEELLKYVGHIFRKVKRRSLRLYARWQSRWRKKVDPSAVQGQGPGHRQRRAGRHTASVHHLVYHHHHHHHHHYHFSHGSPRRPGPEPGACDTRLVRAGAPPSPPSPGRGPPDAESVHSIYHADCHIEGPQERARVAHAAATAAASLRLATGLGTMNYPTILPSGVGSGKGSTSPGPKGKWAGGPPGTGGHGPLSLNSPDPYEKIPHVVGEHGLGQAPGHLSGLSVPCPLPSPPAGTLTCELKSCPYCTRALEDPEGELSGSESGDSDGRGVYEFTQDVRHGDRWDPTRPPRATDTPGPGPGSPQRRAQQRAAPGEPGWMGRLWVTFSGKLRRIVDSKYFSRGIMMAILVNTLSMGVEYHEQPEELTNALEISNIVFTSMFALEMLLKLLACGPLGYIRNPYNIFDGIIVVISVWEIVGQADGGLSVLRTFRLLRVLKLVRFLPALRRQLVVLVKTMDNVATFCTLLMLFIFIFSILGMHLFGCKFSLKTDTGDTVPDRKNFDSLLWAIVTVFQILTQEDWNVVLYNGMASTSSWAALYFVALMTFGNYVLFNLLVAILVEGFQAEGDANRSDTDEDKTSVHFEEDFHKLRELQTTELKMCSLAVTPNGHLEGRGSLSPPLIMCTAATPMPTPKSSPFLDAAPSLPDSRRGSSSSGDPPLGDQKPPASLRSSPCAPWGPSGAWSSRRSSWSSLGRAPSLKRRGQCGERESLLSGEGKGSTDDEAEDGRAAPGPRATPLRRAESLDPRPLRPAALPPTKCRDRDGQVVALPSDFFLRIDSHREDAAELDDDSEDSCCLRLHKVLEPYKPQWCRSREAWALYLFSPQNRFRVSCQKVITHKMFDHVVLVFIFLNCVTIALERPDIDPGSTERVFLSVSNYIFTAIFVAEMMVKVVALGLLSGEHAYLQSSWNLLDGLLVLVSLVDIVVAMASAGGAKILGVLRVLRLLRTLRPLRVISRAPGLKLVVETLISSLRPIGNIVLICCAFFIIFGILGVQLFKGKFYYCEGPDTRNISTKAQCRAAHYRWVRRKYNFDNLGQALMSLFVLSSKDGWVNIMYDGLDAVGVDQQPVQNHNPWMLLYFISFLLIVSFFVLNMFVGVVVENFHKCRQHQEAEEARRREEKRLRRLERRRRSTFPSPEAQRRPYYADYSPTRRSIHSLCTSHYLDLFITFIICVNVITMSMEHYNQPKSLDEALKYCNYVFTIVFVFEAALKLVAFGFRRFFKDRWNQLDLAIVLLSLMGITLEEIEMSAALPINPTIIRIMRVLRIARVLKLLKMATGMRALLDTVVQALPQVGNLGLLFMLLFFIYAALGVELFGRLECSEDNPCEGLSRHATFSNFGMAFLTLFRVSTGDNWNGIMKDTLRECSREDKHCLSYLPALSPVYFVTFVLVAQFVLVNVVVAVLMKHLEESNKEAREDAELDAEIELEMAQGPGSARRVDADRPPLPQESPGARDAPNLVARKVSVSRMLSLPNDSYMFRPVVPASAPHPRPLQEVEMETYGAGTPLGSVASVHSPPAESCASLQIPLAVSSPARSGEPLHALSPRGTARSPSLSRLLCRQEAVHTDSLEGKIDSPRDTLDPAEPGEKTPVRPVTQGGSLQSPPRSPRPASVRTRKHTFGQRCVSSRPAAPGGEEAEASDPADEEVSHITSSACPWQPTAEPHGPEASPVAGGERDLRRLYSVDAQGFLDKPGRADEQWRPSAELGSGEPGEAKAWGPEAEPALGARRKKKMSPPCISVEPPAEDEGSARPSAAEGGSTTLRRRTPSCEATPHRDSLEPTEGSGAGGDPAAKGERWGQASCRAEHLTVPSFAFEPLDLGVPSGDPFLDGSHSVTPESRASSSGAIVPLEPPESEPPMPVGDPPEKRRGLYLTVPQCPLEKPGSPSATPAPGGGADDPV
T3 sequence (P41145 whole entry): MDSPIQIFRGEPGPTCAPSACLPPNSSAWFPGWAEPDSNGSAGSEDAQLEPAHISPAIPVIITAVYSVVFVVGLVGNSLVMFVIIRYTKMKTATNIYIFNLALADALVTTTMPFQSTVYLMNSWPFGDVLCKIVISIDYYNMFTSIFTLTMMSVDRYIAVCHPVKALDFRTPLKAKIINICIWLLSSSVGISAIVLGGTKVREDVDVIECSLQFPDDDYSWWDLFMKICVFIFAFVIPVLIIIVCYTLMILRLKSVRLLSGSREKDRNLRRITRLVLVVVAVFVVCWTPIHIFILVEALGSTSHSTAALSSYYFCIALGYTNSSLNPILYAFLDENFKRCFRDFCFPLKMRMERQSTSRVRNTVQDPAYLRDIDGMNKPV
T1 sequence (Q92731 whole entry): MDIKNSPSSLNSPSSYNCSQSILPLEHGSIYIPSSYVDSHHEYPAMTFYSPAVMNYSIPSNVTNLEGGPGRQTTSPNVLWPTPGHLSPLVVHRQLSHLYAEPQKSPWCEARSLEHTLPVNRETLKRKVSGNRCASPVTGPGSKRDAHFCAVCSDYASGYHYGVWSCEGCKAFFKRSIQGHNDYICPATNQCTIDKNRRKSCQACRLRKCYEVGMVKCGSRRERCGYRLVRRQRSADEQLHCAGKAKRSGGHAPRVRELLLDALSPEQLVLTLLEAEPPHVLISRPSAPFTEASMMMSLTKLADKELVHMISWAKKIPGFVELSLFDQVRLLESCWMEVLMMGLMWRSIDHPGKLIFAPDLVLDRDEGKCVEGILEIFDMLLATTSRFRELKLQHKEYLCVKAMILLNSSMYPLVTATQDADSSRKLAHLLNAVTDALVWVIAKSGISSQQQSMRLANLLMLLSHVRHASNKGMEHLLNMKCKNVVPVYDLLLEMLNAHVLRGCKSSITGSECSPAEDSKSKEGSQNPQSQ
Sequence of DNA dC->dU-editing enzyme APOBEC-3G (Q9HC16 whole entry): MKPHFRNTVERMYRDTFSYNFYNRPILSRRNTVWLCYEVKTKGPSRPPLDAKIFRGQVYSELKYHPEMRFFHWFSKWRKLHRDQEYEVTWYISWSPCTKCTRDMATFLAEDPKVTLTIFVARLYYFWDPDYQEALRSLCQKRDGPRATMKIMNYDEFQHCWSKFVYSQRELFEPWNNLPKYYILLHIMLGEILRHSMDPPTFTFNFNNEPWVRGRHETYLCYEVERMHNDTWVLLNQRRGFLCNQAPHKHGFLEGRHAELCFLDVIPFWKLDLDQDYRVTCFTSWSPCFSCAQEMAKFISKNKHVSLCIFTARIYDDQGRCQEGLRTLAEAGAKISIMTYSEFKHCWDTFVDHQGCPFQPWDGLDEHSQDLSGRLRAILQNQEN
Sequence of Beta-galactosidase (Q8VNN2 whole entry): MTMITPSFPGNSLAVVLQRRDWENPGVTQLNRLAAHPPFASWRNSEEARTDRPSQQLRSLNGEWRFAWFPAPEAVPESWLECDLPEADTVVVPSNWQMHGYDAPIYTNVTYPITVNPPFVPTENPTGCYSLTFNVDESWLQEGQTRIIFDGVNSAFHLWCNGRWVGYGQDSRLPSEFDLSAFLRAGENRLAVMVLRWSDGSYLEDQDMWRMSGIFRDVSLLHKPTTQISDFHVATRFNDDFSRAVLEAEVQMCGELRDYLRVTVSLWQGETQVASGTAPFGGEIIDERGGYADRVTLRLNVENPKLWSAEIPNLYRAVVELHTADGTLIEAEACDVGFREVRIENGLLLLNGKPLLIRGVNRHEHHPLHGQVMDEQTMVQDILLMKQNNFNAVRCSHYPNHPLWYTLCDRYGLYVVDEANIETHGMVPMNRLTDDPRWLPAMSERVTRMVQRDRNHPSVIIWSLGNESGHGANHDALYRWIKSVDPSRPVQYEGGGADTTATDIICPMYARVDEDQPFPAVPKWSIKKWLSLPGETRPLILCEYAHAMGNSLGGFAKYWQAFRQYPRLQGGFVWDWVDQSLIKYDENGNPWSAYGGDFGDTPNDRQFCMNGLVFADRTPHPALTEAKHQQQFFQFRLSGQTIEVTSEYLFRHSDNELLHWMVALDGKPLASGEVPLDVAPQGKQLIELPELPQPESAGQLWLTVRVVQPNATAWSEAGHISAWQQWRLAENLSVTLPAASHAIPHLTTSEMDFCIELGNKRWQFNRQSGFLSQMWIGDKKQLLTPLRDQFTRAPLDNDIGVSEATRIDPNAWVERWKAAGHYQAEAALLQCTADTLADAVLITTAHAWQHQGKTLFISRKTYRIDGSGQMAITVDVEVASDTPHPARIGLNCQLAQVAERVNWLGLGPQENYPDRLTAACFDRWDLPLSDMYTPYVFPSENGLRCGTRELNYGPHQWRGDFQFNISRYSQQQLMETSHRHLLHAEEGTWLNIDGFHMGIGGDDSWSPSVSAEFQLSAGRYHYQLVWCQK

## CSc1ccccc1NC(=O)c1noc2c1CCC2
Estrogen receptor beta [1]
  IC50: 3.77 µM (active)
Bcl-2-like protein 10
  IC50: 12.6 µM (active)
Estrogen receptor beta [2]
  IC50: > 50 µM (not active)

## Cc1nc2scc(-c3ccccc3)c2c(=O)n1N=C1C=CC(=O)C=C1
[3]
  EC50: 2.23 µM (active)
[4]
  IC50: 9.73 µM (active)
[5]
  pIC50: 4.78
[6]
  EC50: 7.47 µM (active)
[7]
  EC50: 5.96 µM (active)
[8]
  IC50: 9.24 µM (active)
Beta-galactosidase
  EC50: > 31.5 µM (inactive)

## O=S(=O)(c1ccccc1)N(F)S(=O)(=O)c1ccccc1
[4]
  IC50: 55.3 µM (active)

## O=C(O)COc1ccccc1C(Nc1cccnc1)c1cc(Cl)c2cccnc2c1O (stereo not drawn)
[9]
  IC50: 1.71 µM (active)
[10]
  AC50: > 380 µM (inactive)
[11]
  EC50: > 150 µM (inactive)
[12]
  EC50: > 38 µM (not active)
Large T antigen
  IC50: 10.3 µM (active)
Protein RecA
  EC50: 11.8 µM (active)
Aminopeptidase N
  IC50: 38.4 µM (active)

## CCc1ccc(S(=O)(=O)NCCc2csc(-c3ccccc3)n2)s1
[13]
  EC50: 4.22 µM (active)

## COC(=O)C1=C(C)N(c2ccccc2)/C(=C/c2cccs2)C1=O
Bcl-2-like protein 10
  IC50: > 50 µM (inactive)

## O=C1NC(c2ccc(Br)cc2)Nc2ccccc21 (stereo not drawn)
Trypsin
  AC50: 15.3 µM (active)
Kallikrein-7
  EC50: > 69.5 µM (inactive)

## CCCC1=C(C(=O)OCC)C(c2cc(Cl)cc(OC)c2OCC(=O)OCC)NC(=O)N1 (stereo not drawn)
Bcl-2-like protein 10
  IC50: > 100 µM (inactive)

## Oc1ccccc1C1=Nc2nc3ccccc3n2C(c2ccccc2)C1 (stereo not drawn)
[13]
  EC50: 6.95 µM (active)

## COc1ccc(N(CC(=O)Nc2cccc(C(F)(F)F)c2)S(C)(=O)=O)cc1
[13]
  EC50: 7.98 µM (active)

## Cc1sc(Cc2nc(O)cs2)nc1-c1ccccc1
[5]
  pIC50: < 4.49
[8]
  IC50: 15.6 µM (active)
Beta-galactosidase
  EC50: > 31.5 µM (inactive)
